Test results: patent publication US20220356163A1, “SMALL MOLECULE INHIBITORS OF Id PROTEINS” (MEMORIAL SLOAN KETTERING CANCER CENTER, priority 2019, published 2022)

Experiments:
ID1 mRNA = experiment: qRT-PCR for ID1 in HCT116 cells; assay type: cell-based; conditions: 40 μM, 24 hours
Experimental: qRT-PCR. RNA was extracted using the RNeasy kit (Qiagen, Valencia, Calif., USA) and cDNA was generated from 1 μg of RNA using SuperScript IV First-Strand Synthesis System (Invitrogen, Grand Island, N.Y., USA). Quantitative PCR was performed using SYBR Green QuantiTect Primer Assay (Qiagen) according to manufacturer's instructions in a 7900HT Fast-Real Time PCR System Instrument (Applied Biosystems, Grand Island, N.Y., USA). Primer pairs for the individual genes were obtained from the bioinformatically validated QuantiTect Library and are as follows: ID1 (QT00230650), ID3 (QT01673336), and GAPDH (QT01192646). The fold changes in gene expression were calculated using the delta-delta CT method.

E protein binding = experiment: EMSA on whole cell lysates from HCT116 cells; assay type: cell-based; conditions: 24 hours treatment
Experimental: Electrophoretic mobility shift assays. To test the activity of compounds identified in the in silico screen, full-length E47 was purified from bacteria and mixed with a P^32 labeled E-box sequence derived from the muscle creatine kinase (MCK) enhancer, BSA, DTT, poly dI-dC, salmon sperm, and HeLa nuclear extract, in the presence or absence of purified full-length Id1. Increasing concentrations of the various test compounds dissolved in DMSO or DMSO alone were added to the reaction mixes for 30 minutes, resolved on a 5% non-denaturing polyacrylamide gel, and autoradiographed. Electrophoretic mobility shift assays (EMSAs) were carried out on whole cell lysates from AGX51-treated cells and the EMSA was performed as described previously (Tournay and Benezra, Mol Cell Biol, 16: 2418-30 (1996)).
Without being bound by theory, it was hypothesized that loss of Id proteins in response to AGX51 should result in an increase in E protein binding activity assuming little interference of the compound with the E proteins themselves. […] To determine if loss of Id activity precedes Id protein loss, EMSAs were carried out using cell lysates from HCT116 cells treated with AGX51 for one hour.

[1] = 14-day toxicity study, i.p.; assay type: in vivo; conditions: 60 mg/kg bid i.p., 14 days
Experimental: Toxicity analyses. To assess for toxicity, female athymic nude mice (Envigo), age 6-8 weeks, were dosed i.p. with either a control vehicle (70% DMSO in water) or AGX51 at 60 mg/kg twice daily for 14 consecutive days. Mice were sacrificed 24 hours after the last test administration. Gross and complete necropsy, along with clinical pathology analysis was conducted on all mice. Clinical Chemistry parameters measured were: BUN, Creatine, ALP, ALT, AST, GGT, Bilirubin, Total Protein, Albumin, Globulin, Phosphorus, Glucose, Cholesterol, Phosphorus, Calcium, Sodium, Potassium, Chloride. Hematology parameters measured were: white blood cells (lymphocytes, Monocytes, Eosinophils, Basophils, Neutrophils), red blood cells, Hemoglobin, Hematocrit, MCV, MCH, MCHC, RDW, Platelets. Organs/Tissues analyzed were: Lung, heart, thymus, kidneys, liver, spleen, gall bladder, pancreas, duodenum, jejunum, ileum, cecum, colon, bone marrow, femur, tibia, sternum, brain, eyes, ears, nasal and oral cavities, teeth, mesenteric and tracheal lymph nodes.

MCF-7 = experiment: MTT assay, MCF-7; assay type: cell-based; conditions: Homo sapiens, MCF7, 24 h, MCF-7, ER +ve cell line, read-out: IC50 value after 24 hours of treatment
From the text: The 4T1 murine mammary tumor cell line and nine breast cancer cell lines representing the major breast cancer subtypes (ER+, HER2+, and TNBC) including MDA-MB-157, MDA-MB-436, MDA-MB-231, MDA-MB-453, MDA-MB-361, BT-474, SK-BR-3, MCF-7 and T47-D will be grown in RPMI or DMEM (Dulbecco's Modified Eagle Medium) media supplemented with 10% FBS (fetal bovine serum), 1% penicillin-streptomycin and 1% L-Glutamine. Patient derived xenograft cell lines BR7, BR11, and IBT will be established directly from breast cancer bone metastases specimens surgically resected from patients with informed consent. BR7 and BR11 specimens will be obtained from ER positive (HER2 negative and PR negative) metastatic breast cancer patients, while the IBT specimen will be obtained from a metastatic, triple negative breast cancer patient. Fresh tumor tissues will be quickly washed with ice cold PBS and minced into about 1-3 mm pieces in MEM medium (without FBS) using sterile razor blades. […] The cells will be treated with either 100 μM DMSO, AGX51, or a compound of the present technology such as AGX-A. The cell morphology and growth will be monitored daily for 1 week by microscopy for changes in morphology or cell death. […] Absorbance will then measured at 570 nm using a plate reader (Synergy 2, BioTek). […]

With `CCC(=O)N(CCC(c1ccc2c(c1)OCO2)c1ccccc1OC)Cc1ccccc1` (racemic) [AGX51, N-(3-(benzo[d][1,3]dioxol-5-yl)-3-(2-methoxyphenyl)propyl)-N-benzylpropionamide] the “ID1 mRNA levels” value (ID1 mRNA) was “increase in ID1 mRNA levels”, the “E protein binding in cell lysates” value (E protein binding) was “small increase in E protein binding” and the “clinical chemistry parameters and hematology” value [1] was “within normal limits”. For the same compound, the “gross necropsy and histopathological evaluation of all major organs” value [1] was “No abnormal findings”, the weight loss [1] was “no significant weight loss” and the IC50 (MCF-7) was 60 µM.
